Here are results for 11 molecules from ChEMBL document CHEMBL1201862, “PubChem BioAssay data set” (2004).

Some test systems named below: SN12C; RXF 393; SF-295; KM12; HL-60; K562; SK-MEL-2; OVCAR-4; NCI-H23; IGROV-1; HCT-116; U-251; A549; NCI-H522; EKVX; NCI-H226; LOX IMVI; HOP-62; OVCAR-3; MCF7.
Common to all, as to assay: NCI anticancer screen, dose series, 48 h

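1) Cells in 96-well plates. 2) Compound, 48 h, 5 concentrations. 3) Linear interpolation between surrounding doses. 4) Unreached endpoint = highest concentration. GI50 marks 50% less growth.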 Activity calls are given as the source filed them. Rule as the data show it: active = GI50 up to about 1.1 µM and inactive = higher. Bounds are passed on as bounds.

For `Cc1ccnc2nc(N)ccc12`, the GI50 in the test on SN12C, in the test with RXF 393, with SF-295, in the test with KM12, in the test on HL-60 and in the test on K562 was > 100 µM (inactive) throughout. Moreover, the GI50 with SK-MEL-2, with OVCAR-4, in the test with NCI-H23, in the test on IGROV-1, in the test on HCT-116 and with U-251 was > 100 µM (inactive) in each case. Moreover, the GI50 in the test on A549, with NCI-H522, with EKVX and with NCI-H226 was > 100 µM (inactive) in each case.
Turning to `C[n+]1[se]c2ccccc2c1Cl`, the GI50 in the test on SN12C is 15.5 µM (inactive); in the test with LOX IMVI it was 19.9 µM (inactive); in the test on RXF 393, 19.5 µM (inactive); with SF-295 it was 21.7 µM (inactive); in the test with KM12, > 40.2 µM (inactive); in the test with HOP-62 it was > 40.7 µM (inactive). The GI50 in the test with HL-60 is 7.89 µM (inactive); in the test on K562, 36.4 µM (inactive); in the test on SK-MEL-2, 11.7 µM (inactive); with OVCAR-4, 31 µM (inactive); with NCI-H23 it was 20.1 µM (inactive); in the test on IGROV-1, 31 µM (inactive). For the same molecule, the GI50 is 16.9 µM (inactive) in the test with HCT-116; 30.9 µM (inactive) with U-251; 32 µM (inactive) in the test on A549; 20.3 µM (inactive) in the test on NCI-H522; 24.1 µM (inactive) with EKVX; 27 µM (inactive) in the test with OVCAR-3. Also, the GI50 in the test on NCI-H226 was 25.6 µM (inactive).
On to `C=CC1(c2ccccc2Cl)N/C(=C/OCC)CO1` (stereo not drawn), for which the GI50 in the test with SN12C is > 100 µM (inactive); with LOX IMVI, 23.5 µM (inactive); in the test with RXF 393, 10.3 µM (inactive); with SF-295, > 100 µM (inactive); in the test with KM12, > 100 µM (inactive); in the test on HOP-62 it was > 100 µM (inactive). Moreover, the GI50 in the test with HL-60 is 47.9 µM (inactive); in the test on K562 it was > 100 µM (inactive); in the test with SK-MEL-2 it was > 100 µM (inactive); in the test with OVCAR-4, > 100 µM (inactive); in the test with NCI-H23, > 100 µM (inactive); in the test on IGROV-1 it was > 100 µM (inactive). Also, the GI50 with HCT-116 was 90.2 µM (inactive); with U-251, > 100 µM (inactive); with A549 it was 38.2 µM (inactive); with NCI-H522, > 100 µM (inactive); with EKVX, > 100 µM (inactive); with OVCAR-3 it was > 100 µM (inactive). In addition, the GI50 in the test with NCI-H226 was > 100 µM (inactive).
As for `COC(=O)C(/C(=N/NC(N)=S)C(=O)Nc1ccccc1[N+](=O)[O-])c1cnc2ccccc2n1` (stereo not drawn), the GI50 with SN12C, in the test with LOX IMVI, in the test on RXF 393, in the test with SF-295, in the test with KM12 and in the test with HOP-62 was > 100 µM (inactive) throughout. Further, the GI50 in the test with HL-60, with K562, in the test on SK-MEL-2, in the test with OVCAR-4, with NCI-H23 and in the test on IGROV-1 was > 100 µM (inactive) in each case. Further, the GI50 in the test on HCT-116, with U-251, in the test with A549, in the test with NCI-H522, in the test with EKVX and in the test on NCI-H226 was > 100 µM (inactive) throughout.
Take `CC=C/C=C/[C@@H]1O[C@](O)([C@H](CC)C(=O)NC/C=C/C=C(\C)[C@@H](OC)[C@@H](C)[C@@H]2O[C@H](/C=C/C=C/C=C(\C)C(=O)c3c(O)cc[nH]c3=O)[C@H](O)[C@@H]2O)[C@H](O)[C@H](O)C1(C)C`: the GI50 is 69.7 µM (inactive) with SF-295; 72.6 µM (inactive) in the test on KM12; > 100 µM (inactive) with HOP-62; 93.5 µM (inactive) with HL-60; > 100 µM (inactive) in the test with K562; > 100 µM (inactive) with SK-MEL-2. For the same molecule, the GI50 with OVCAR-4, in the test with MCF7, in the test with NCI-H23, in the test on IGROV-1, with U-251 and with A549 was > 100 µM (inactive) throughout. For the same molecule, the GI50 with NCI-H522, in the test on EKVX and with OVCAR-3 was > 100 µM (inactive) each time.
On to `CCOC(=O)C(=O)NC12CC3CC(CC(C3)C1)C2`, for which the GI50 was > 100 µM (inactive) in the test with SN12C; 0.208 µM (active) in the test with LOX IMVI; > 100 µM (inactive) in the test with RXF 393; > 100 µM (inactive) in the test with SF-295; > 100 µM (inactive) in the test on KM12; > 100 µM (inactive) in the test with HOP-62. In addition, the GI50 with HL-60, with K562, in the test with SK-MEL-2, in the test with OVCAR-4, with NCI-H23 and with IGROV-1 was > 100 µM (inactive) each time. Further, the GI50 in the test on HCT-116, in the test on U-251, in the test with A549, in the test on NCI-H522, in the test on EKVX and in the test with NCI-H226 was > 100 µM (inactive) throughout.
Consider `CCOC(=O)C1=NN(c2ccc(Cl)cc2)C2=CC(C)=NN(C)C(=S)N21`, for which the GI50 is 51.5 µM (inactive) in the test on SN12C; 47.1 µM (inactive) with LOX IMVI; 25.4 µM (inactive) with RXF 393; 42.2 µM (inactive) with SF-295; > 100 µM (inactive) with KM12; > 100 µM (inactive) in the test with HL-60. For the same molecule, the GI50 in the test on K562 was > 100 µM (inactive); with SK-MEL-2, > 10 µM (inactive); in the test on OVCAR-4, 37.6 µM (inactive); in the test on MCF7, > 10 µM (inactive); in the test on NCI-H23 it was 42.1 µM (inactive); with IGROV-1, 44.8 µM (inactive). Besides, the GI50 with HCT-116 was 36.6 µM (inactive); in the test on U-251, 25.9 µM (inactive); with A549, 95.7 µM (inactive); in the test with NCI-H522, 20.7 µM (inactive); in the test with EKVX it was 29.9 µM (inactive); in the test on OVCAR-3 it was 56.5 µM (inactive).
Turning to `O=C(CC/C=C(/CS(=O)(=O)c1ccccc1)S(=O)(=O)c1ccccc1)c1ccccc1`, the GI50 with SN12C was > 100 µM (inactive); in the test on LOX IMVI it was > 100 µM (inactive); in the test on RXF 393, 70.8 µM (inactive); with SF-295 it was > 100 µM (inactive); in the test on KM12, > 100 µM (inactive); with HOP-62, > 100 µM (inactive). The GI50 with HL-60 is 42.9 µM (inactive); in the test with K562 it was > 100 µM (inactive); with SK-MEL-2 it was 50.8 µM (inactive); with OVCAR-4, > 100 µM (inactive); in the test with NCI-H23, > 100 µM (inactive); with IGROV-1, > 100 µM (inactive). Also, the GI50 in the test on HCT-116 is > 100 µM (inactive); in the test with U-251 it was 72.3 µM (inactive); in the test with A549 it was > 100 µM (inactive); in the test with NCI-H522 it was 10.4 µM (inactive); in the test with EKVX it was > 100 µM (inactive); with OVCAR-3 it was 85.5 µM (inactive). For the same molecule, the GI50 in the test on NCI-H226 was > 100 µM (inactive).
With `Cc1ccc(C(=O)Cc2nc3c([nH]c2=O)c(C)nn3-c2ccccc2)c(C)c1`, the GI50 in the test with SN12C is > 10 µM (inactive); in the test with LOX IMVI, > 10 µM (inactive); in the test with SF-295 it was > 10 µM (inactive); in the test with KM12 it was > 10 µM (inactive); in the test on HOP-62 it was > 10 µM (inactive); in the test with HL-60, 9.04 µM (inactive). Also, the GI50 is > 10 µM (inactive) with K562; 2.29 µM (inactive) in the test with OVCAR-4; > 10 µM (inactive) with MCF7; > 10 µM (inactive) with NCI-H23; > 10 µM (inactive) in the test on IGROV-1; 4.69 µM (inactive) with HCT-116. The GI50 in the test on U-251 was > 10 µM (inactive); in the test with A549 it was 6.85 µM (inactive); in the test with NCI-H522, > 10 µM (inactive); with OVCAR-3 it was 3.25 µM (inactive).
With `CC[C@H]1CN2CCc3cc(OC)c(OC)cc3[C@@H]2C[C@@H]1C[C@H]1NCCc2cc(O)c(OC)cc21`, the GI50 is 0.0361 µM (active) in the test with SN12C; 0.0354 µM (active) in the test with RXF 393; 0.0326 µM (active) in the test with SF-295; 0.0296 µM (active) in the test on KM12; 0.025 µM (active) in the test with HL-60; 0.025 µM (active) in the test on K562. Further, the GI50 is 0.0319 µM (active) in the test on SK-MEL-2; 0.025 µM (active) with OVCAR-4; 0.025 µM (active) in the test with MCF7; 0.0261 µM (active) in the test with NCI-H23; 0.0385 µM (active) with IGROV-1; 0.025 µM (active) in the test on HCT-116. Besides, the GI50 with U-251 is 0.0333 µM (active); in the test on A549 it was 0.025 µM (active); in the test on NCI-H522 it was 0.025 µM (active); with EKVX, 0.025 µM (active); with OVCAR-3 it was 0.0377 µM (active).
Take `COC(=O)C(Cc1ccc(N(C)C)cc1)(NC(=O)c1ccccc1)P(=O)(OC)OC` (stereo not drawn): the GI50 in the test with SN12C, in the test with LOX IMVI, with RXF 393, in the test with SF-295, with KM12 and with HOP-62 was > 100 µM (inactive) each time. Moreover, the GI50 in the test on HL-60, in the test on K562, in the test with SK-MEL-2, with OVCAR-4, in the test on NCI-H23 and in the test with IGROV-1 was > 100 µM (inactive) each time. In addition, the GI50 in the test with HCT-116, in the test on U-251, with A549, with NCI-H522, in the test with EKVX and in the test on NCI-H226 was > 100 µM (inactive) throughout.
